One may read the EC50 as the concentration that produces a half-maximal response.

The test system of this assay is P. falciparum NF54 strain. Kind of assay: [3H]hypoxanthine incorporation assay, individual drugs. Format: cell-based. The settings on record: Plasmodium falciparum, 72 h. As for the experimental part:
IC50 and drug interaction studies were performed as previously described ([27], [28]). […] Cultures were harvested onto glass fiber filters, washed, and the radioactivity was counted using a MicroBetaplate liquid scintillation counter and recorded as counts per minute (cpm) per well. Results are expressed as a percentage of the untreated controls (see the supplemental material for more details). page 2: 25 In vitro isobolograms 26 Compounds were tested against intraerythrocytic forms of P. falciparum derived from asynchronous stock cultures 27 of lab strain NF54 (Schiphol airport strain of unknown origin), as previously described.i,ii The culture medium was […] 29 mM HEPES, 25 mM NaHCO3 (pH 7.3), 0.36 mM hypoxanthine and 100 μg/mL neomycin. Human type A+ 30 erythrocytes served as host cells. […] 31 in humidified modular chambers. Testing of the individual drugs was carried out in 96-well microtiter plates. The 32 compounds were dissolved in DMSO (10 mg/mL), prediluted in hypoxanthine-free culture medium and titrated in […] After addition of an equal volume of parasite culture with a parasitemia of […] Parasite growth was measured by the incorporation of radiolabelled [3H]hypoxanthine (0.25 µCi in […] 37 assay duration) prior to the termination of the test. Cultures were harvested onto glass-fiber filters and washed with 38 distilled water. The radioactivity was counted using a MicroBetaplate liquid scintillation counter (Wallac, Zürich, 39 Switzerland) and the results recorded as counts per minute (cpm) per well at each drug concentration and expressed 40 as percentage of the untreated controls. Fifty percent inhibitory concentrations (IC50) were determined by linear 41 interpolation.v 42 43 For data interpretation, the IC50s of the drugs in combination were expressed as fractions of the IC50s of the drugs 44 alone. These fractions were called “Fractional Inhibitory Concentrations” (FIC) for drug A and for drug B, 45 respectively. 46 FIC Drug A = IC50 A (B) IC50 A […] 49 50 Formulation 51 Pyronaridine (tetraphosphate salt) and […] (succinate salt) were solubilized in a vehicle consisting of 70% […] 54 55 2

With `O=C1C(O)=C([C@H]2CC[C@H](c3ccc(Cl)cc3)CC2)C(=O)c2ccccc21` [atovaquone], the EC50 stood at 0.4 nM.

On to `[H]/N=C(\N/C(=N/[H])Nc1ccc(Cl)cc1)NC(C)C` [proguanil], for which the EC50 stood at 5500 nM.

(Values after publication PMC7179297, “Preclinical Antimalarial Combination Study of M5717, a Plasmodium falciparum Elongation Factor 2 Inhibitor, and Pyronaridine, a Hemozoin Formation Inhibitor” (Antimicrobial Agents and Chemotherapy, 2020).)
